Assay results reported in ChEMBL document CHEMBL1201862, “PubChem BioAssay data set” (2004).
Calls of active or inactive are those of the source.

Columns and labels:
[1] = target: T1, Microphthalmia-associated transcription factor (Homo sapiens, UniProt O75030); experiment: TRPM1 promoter luciferase signal decrease, dose response, MITF inhibitor project, cell-based, SK-MEL-5, cherry-picked, set 3 (AID 493073); format: functional
T1 sequence (O75030 whole entry): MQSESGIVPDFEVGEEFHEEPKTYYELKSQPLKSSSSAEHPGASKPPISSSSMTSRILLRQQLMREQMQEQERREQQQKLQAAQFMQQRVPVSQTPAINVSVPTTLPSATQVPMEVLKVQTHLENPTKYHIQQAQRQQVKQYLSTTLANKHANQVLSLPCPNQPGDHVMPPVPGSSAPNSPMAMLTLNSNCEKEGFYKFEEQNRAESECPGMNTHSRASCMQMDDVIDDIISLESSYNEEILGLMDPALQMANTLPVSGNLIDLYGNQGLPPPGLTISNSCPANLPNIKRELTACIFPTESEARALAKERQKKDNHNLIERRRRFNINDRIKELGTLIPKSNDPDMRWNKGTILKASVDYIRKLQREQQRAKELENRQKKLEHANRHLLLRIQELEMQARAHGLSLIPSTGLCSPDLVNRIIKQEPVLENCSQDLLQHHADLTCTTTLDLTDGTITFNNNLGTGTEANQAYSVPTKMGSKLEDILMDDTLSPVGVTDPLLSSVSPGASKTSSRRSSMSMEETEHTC

[2] = target: T2, Corticotropin-releasing factor receptor 2/Corticotropin-releasing factor-binding protein (Homo sapiens, UniProt P24387+Q13324); experiment: activators of CRF receptor 2 with binding protein – uHTS hits, confirmation (AID 602473); format: functional; conditions: read-out: EC50_Mean
T2 sequence (Q13324 whole entry): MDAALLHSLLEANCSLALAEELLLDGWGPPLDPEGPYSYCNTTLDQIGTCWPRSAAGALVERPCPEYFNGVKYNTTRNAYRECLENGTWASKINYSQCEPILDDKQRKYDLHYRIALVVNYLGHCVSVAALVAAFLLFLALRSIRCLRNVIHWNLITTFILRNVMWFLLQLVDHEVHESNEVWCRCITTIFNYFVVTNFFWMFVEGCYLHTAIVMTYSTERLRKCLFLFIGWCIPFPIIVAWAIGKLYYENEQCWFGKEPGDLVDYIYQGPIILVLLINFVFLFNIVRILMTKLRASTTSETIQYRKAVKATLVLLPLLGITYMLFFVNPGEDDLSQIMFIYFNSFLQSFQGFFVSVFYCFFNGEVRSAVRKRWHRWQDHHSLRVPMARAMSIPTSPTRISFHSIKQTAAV
T2 sequence (P24387 whole entry): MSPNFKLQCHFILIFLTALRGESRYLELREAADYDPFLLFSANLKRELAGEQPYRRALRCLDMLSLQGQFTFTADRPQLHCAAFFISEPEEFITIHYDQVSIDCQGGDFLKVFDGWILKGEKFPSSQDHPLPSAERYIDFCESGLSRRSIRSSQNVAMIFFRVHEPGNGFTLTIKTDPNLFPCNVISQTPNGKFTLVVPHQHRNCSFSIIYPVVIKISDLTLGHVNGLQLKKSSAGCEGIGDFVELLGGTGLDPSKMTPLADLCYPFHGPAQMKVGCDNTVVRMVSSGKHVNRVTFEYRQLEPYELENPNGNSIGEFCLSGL

[3] = target: T3, Short transient receptor potential channel 4 (Mus musculus, UniProt Q9QUQ5); experiment: mouse TRPC4 channel activators, dose response, cell-based, HEK293 TRPC4/mu-opioid, Fluo-4 calcium (AID 434937); format: functional
T3 sequence (Q9QUQ5 whole entry): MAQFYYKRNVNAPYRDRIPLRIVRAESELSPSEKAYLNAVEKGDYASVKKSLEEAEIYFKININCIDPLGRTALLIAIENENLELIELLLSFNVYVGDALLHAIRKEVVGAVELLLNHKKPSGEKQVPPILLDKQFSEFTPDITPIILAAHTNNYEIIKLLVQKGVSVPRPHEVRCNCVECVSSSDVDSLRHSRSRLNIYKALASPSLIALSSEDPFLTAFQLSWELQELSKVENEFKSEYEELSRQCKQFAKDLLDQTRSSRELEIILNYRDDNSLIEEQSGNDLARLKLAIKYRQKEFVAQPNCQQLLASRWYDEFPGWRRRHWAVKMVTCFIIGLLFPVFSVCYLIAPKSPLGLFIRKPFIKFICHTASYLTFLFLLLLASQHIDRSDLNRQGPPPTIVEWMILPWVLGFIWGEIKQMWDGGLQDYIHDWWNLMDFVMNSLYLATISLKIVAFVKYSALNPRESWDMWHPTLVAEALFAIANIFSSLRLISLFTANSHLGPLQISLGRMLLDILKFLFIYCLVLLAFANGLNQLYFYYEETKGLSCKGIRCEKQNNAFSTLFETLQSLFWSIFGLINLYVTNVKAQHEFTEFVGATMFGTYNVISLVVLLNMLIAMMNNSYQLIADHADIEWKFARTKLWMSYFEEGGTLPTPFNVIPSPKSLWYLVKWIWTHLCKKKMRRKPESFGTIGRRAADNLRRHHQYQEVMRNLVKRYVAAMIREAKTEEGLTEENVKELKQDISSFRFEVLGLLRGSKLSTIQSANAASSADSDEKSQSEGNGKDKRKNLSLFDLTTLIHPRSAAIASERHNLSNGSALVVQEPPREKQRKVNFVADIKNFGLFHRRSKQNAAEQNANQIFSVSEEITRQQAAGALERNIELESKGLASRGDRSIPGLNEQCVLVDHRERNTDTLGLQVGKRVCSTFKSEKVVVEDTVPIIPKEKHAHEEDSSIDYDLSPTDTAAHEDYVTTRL

[4] = target: T4, Ubiquitin-conjugating enzyme E2 N (Homo sapiens, UniProt P61088); format: functional;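 further: Dose-response confirmation in a TR-FRET assay detecting UBC13-driven polyubiquitin chain formation, inhibition measured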
T4 sequence (P61088 whole entry): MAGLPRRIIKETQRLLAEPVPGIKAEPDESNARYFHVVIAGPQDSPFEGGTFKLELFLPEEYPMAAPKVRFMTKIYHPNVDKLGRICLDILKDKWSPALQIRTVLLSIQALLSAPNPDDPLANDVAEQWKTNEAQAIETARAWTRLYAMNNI

[5] = C. albicans growth with fluconazole, confirmation, fluorescence, retest (AID 2467); format: functional, cell-based
[6] = NIH-3T3 fibroblast cytotoxicity, dose response, cytotoxicity control, cell-based, fluorescence, Alamar Blue, secondary assay (AID 2327); format: functional;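 further: NIH-3T3 mouse fibroblasts cultured with fluconazole at 8 µg/mL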
[7] = target: T5, Zinc finger protein mex-5 (Caenorhabditis elegans, UniProt Q9XUB2); experiment: MEX-5/TCR-2 RNA interaction inhibitors, dose response, biochemical, C. elegans, fluorescence polarization (AID 1960)
T5 sequence (Q9XUB2 whole entry): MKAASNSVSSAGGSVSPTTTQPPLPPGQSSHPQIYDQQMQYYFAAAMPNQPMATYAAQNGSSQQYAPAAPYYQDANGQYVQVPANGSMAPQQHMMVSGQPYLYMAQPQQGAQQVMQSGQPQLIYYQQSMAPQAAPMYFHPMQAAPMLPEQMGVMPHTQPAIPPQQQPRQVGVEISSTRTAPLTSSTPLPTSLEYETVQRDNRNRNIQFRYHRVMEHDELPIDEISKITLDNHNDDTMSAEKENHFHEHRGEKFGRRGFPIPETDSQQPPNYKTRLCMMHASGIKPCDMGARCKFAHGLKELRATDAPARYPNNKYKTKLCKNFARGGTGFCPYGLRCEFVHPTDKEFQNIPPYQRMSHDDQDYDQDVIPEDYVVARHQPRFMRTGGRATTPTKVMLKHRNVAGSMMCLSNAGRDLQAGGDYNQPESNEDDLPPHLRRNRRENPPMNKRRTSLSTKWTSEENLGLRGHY

H4 = experiment: Luminescence Cell-Based Dose Response HTS to Identify Activators of 5'UTR Stem-Loop Driven Prion Protein mRNA Translation in H4 Neuroglioblastoma Cells. [Related pubchem assays: 1829 (Project Summary), 1814 (Primary HTS)]; format: functional; conditions: Homo sapiens
[8] = Luminescence Cell-Based Dose Response HTS to Identify Activators of Luciferase Translation or Activity in H4 […] Cells. [Related pubchem assays: 1829 (Project Summary), 1814 (Primary HTS)]; format: functional
[9] = Luminescence Cell-Based Dose Confirmation HTS to Identify Activators of 5'UTR Stem-Loop Driven Alpha-Synuclein mRNA Translation in H4 Neuroglioblastoma Cells. [Related pubchem assays: 1829 (Project Summary), 1814 (Primary HTS)]; format: functional
Vero = Vero cell cytotoxicity, cytotoxicity control for flavivirus capping enzyme inhibitors (AID 588742); format: functional; conditions: Chlorocebus sabaeus
[10] = target: T6, RNA-binding protein pos-1 (Caenorhabditis elegans, UniProt G5EF15); experiment: inhibitors of POS-1/mex-3 RNA binding, dose response, biochemical, fluorescence polarization (AID 1964);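 further: purified POS-1 fused to maltose binding protein made in E. coli; potency of compounds blocking POS-1 binding to fluorescent RNA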
T6 sequence (G5EF15 whole entry): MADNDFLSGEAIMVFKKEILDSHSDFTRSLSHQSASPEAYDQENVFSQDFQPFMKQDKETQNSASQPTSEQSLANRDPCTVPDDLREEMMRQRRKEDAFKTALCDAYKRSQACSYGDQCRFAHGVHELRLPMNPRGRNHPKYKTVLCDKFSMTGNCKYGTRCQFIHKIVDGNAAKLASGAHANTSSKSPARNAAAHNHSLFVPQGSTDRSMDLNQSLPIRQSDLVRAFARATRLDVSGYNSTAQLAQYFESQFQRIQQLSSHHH

Genome polyprotein = Genome polyprotein (dengue virus type 2, UniProt P29990); experiment: Dengue-2 NS5 methyltransferase inhibitors, primary screen, biochemical, confirmation dose response (AID 588689); format: functional
[11] = Luminescence Cell-Based Dose Retest to Confirm Inhibitors of Cancer Stem Cells. [Related pubchem assays (depositor defined):AID2717, AID2721]; format: functional; conditions: Homo sapiens
Protein skinhead-1 = target: T7, Protein skinhead-1 (Caenorhabditis elegans, UniProt P34707); format: functional
T7 sequence (P34707 whole entry): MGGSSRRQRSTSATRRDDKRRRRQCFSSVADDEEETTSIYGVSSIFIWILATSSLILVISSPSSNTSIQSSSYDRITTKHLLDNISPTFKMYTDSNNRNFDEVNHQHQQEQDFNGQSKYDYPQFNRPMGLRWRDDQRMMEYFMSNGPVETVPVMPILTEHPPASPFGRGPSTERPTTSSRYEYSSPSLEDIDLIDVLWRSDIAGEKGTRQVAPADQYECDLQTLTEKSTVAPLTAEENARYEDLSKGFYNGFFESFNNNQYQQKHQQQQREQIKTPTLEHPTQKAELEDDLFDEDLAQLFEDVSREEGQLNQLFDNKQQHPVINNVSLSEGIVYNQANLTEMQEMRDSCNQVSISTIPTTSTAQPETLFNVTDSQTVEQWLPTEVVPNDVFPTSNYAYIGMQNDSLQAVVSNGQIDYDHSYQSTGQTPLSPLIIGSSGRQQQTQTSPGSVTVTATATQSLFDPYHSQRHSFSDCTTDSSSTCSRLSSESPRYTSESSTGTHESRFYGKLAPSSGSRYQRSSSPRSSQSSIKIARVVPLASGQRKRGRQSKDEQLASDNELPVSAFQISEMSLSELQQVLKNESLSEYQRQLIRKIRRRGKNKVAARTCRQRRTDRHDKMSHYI

[12] = cytotoxicity toward NIH3T3 fibroblasts, dose response, counter-screen, cell-based, ATP luminescence, mouse fibroblasts (AID 2010); format: functional;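 further: cells exposed to compound for about 90 hours before reading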
[13] = inhibitors of intracellular T. cruzi replication, confirmation, NIH3T3 host cells, beta-gal luminescence (AID 2044); format: functional, cell-based;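 further: intracellular parasites grown in NIH/3T3 mouse fibroblasts as host cells; luminescent beta-galactosidase reporter signal from transgenic T. cruzi replicating inside host cells; inhibitors lower the luminescence signal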
[14] = growth suppression of beta-catenin-knockout colon cells, dose response, cell-based, HCT116, human colon tumor (AID 1045); format: functional;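 further: HCT116 colon tumor cells with beta catenin knocked out; cells exposed to compound for 60 hours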
[15] = growth suppression of PTEN-null colon cells, dose response, cell-based, HCT116 PTEN knockout (AID 1047); format: functional;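 further: HCT116 colon tumor cells with PTEN knocked out; cells exposed to compound for 60 hours before readout; potency for loss of cell viability measured by luminescence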

Genome polyprotein, sequence (P29990 2492-3391 limits assumed): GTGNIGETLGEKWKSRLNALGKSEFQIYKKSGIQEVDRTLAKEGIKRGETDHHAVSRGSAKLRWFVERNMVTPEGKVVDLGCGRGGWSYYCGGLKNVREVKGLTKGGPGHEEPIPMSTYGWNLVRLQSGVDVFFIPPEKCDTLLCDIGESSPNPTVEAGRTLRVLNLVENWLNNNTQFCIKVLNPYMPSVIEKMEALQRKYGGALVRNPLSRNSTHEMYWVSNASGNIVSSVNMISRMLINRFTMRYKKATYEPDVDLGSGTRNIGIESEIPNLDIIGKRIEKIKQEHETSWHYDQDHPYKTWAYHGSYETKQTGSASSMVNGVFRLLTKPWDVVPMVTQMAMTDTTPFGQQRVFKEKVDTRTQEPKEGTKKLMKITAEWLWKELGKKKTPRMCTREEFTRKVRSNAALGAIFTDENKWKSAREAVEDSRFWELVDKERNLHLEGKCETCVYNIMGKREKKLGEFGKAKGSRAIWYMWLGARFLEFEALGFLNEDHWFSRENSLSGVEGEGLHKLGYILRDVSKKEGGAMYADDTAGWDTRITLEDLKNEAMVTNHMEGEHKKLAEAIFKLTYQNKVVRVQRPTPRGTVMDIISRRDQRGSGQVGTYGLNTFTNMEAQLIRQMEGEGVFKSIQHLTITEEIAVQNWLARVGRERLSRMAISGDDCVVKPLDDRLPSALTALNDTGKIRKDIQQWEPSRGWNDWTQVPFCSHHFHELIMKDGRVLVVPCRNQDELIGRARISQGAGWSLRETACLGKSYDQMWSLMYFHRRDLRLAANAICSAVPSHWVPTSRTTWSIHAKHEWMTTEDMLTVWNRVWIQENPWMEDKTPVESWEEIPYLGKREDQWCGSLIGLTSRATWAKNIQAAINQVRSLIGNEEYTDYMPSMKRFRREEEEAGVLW

N=c1n(CC(=O)c2ccc([N+](=O)[O-])cc2)c2ccccc2n1Cc1ccccc1Cl
AC50 [1]: 4.03 µM (active)

CCCCC(=O)NC(=S)NNC(=O)c1ccc(Cl)cc1Cl
EC50 [2]: 6.56 µM (active) | EC50 [3]: 5.31 µM (active)

COc1cc(C(=O)Nc2cccc(S(=O)(=O)N3CCCC3)c2)cc(OC)c1C
IC50 [4]: > 20 µM (inactive)

Cc1cc(C)c(CN2CCN(Cc3ccc(C)o3)C(CCO)C2)c(-n2cccn2)c1 (configuration not stated)
EC50 [3]: 3.35 µM (active)

Cc1ccc(NS(=O)(=O)c2ccc(CCC(=O)NCCO)cc2)cc1
EC50 [5]: > 38 µM (not active) | EC50 [6]: > 150 µM (inactive)

CN(C)C(CNC(=O)c1ccc2ccccc2n1)c1ccccc1 (configuration not stated)
EC50 [3]: 0.267 µM (active)

O=C(NCc1ccccc1)C1c2ccccc2Oc2ccccc21
EC50 [5]: 2.43 µM (active) | EC50 [6]: > 150 µM (inconclusive)

CCC(C)/C=C(C)/C=C/C1=CC2=C(Cl)C(=O)C(C)(OC(C)=O)C(=O)C2=CO1 (configuration not stated)
EC50 [7]: > 300 µM (not active) | EC50 (H4): > 120 µM (not active) | EC50 [8]: > 120 µM (not active) | EC50 [9]: > 120 µM (not active) | CC50 (Vero): > 40 µM (active) | EC50 [10]: > 300 µM (not active) | IC50 (Genome polyprotein): 38 µM (active)

CN1CCN(Cc2nc3c(c(=O)[nH]c(=O)n3C)n2Cc2c(F)cccc2Cl)CC1
EC50 [3]: 1.68 µM (active)

COc1cccc(NC(=O)COC(=O)c2c(F)cccc2Cl)c1
EC50 (H4): 20.2 µM (active) | EC50 [8]: 16.1 µM (active) | EC50 [9]: 66.8 µM (active)

COc1ccc(-c2sc3ccccc3c2C#Cc2cncn2C)cc1
AC50 [11]: 2.69 µM (active) | IC50 [4]: > 20 µM (inactive)

CCCC(C(=O)NC(C)(C)C)N(Cc1ccccc1Cl)C(=O)c1snc(C(N)=O)c1N (configuration not stated)
IC50 [4]: > 20 µM (inactive)

Cc1ccccc1Cn1c(CN2CCc3ccccc3C2)nc2c1c(=O)n(C)c(=O)n2C
EC50 [3]: 5.96 µM (active)

Cc1ccc(C2CC(C(F)(F)F)n3nc(C(=O)NCc4c(C)nn(C)c4C)c(Cl)c3N2)cc1 (configuration not stated)
AC50 [1]: 8.89 µM (active) | IC50 (Protein skinhead-1): > 100 µM (inactive)

O=C(COc1cc(Cl)c(Cl)cc1Cl)NCCc1ccccn1
EC50 [3]: 10.6 µM (active)

COc1cc(C(CCN2CCCC2)c2c(OC)cc(OC)c3c(-c4ccccc4)cc(=O)oc23)cc(OC)c1OC (configuration not stated)
IC50 [4]: > 20 µM (inactive) | EC50 [7]: > 300 µM (not active) | EC50 [12]: 49.2 µM (active) | EC50 [13]: 1.7 µM (active) | EC50 [10]: > 300 µM (not active)

CC1(C)CC2=NC3=C(C(=O)c4ccccc43)C(c3ccc(Cl)cc3)C2=C(O)C1 (configuration not stated)
IC50 [4]: > 20 µM (inactive) | EC50 [14]: 13.8 µM (active) | EC50 [15]: 13.1 µM (active)

NC(=O)C1CCCN(CC(O)COCc2ccc(Cl)cc2)C1 (configuration not stated)
EC50 [3]: 0.211 µM (active)
